Test system: diarrhea-predominant IBS subjects
Assay: 3007 Study: open-label 52-week safety study, adverse events and withdrawals
Conditions: P/C group

Cc1nccn1C[C@H]1CCc2c(c3cccc4c3n2CCC4)C1=O [cilansetron, (R)-(−)-4,5,6,8,9,10-hexahydro-10-[(2-methyl-1H-imidazol-1-yl)methyl]-11H-pyrido-[3,2,1-jk]-carbazol-11-one]
TEAE: Dyspnoea NOS: 1 (<1%) n (%) | TEAE: Dysuria: 0 n (%) | TEAE: Ear Disorders NEC: 1 (<1%) n (%) | TEAE: Ear Pain: 1 (<1%) n (%) | TEAE: Ear and Labyrinth Disorders: 4 (1%) n (%) | TEAE: Eczema: 1 (<1%) n (%) | TEAE: Elevated Cholesterol: 3 (1%) n (%) | TEAE: Endocrine Disorders: 2 (<1%) n (%) | TEAE: Endometriosis*: 0 n (%) | TEAE: Erythema: 0 n (%) | TEAE: Erythemas: 0 n (%) | TEAE: External Ear Disorders NEC: 0 n (%) | TEAE: Eye Disorders: 5 (2%) n (%) | TEAE: Fall: 2 (<1%) n (%) | TEAE: Fatigue: 6 (2%) n (%) | TEAE: Fatigue Aggravated: 0 n (%) | TEAE: Febrile Disorders: 1 (<1%) n (%) | TEAE: Fibroma NOS: 1 (<1%) n (%) | TEAE: Fluid Intake Increased: 1 (<1%) n (%) | TEAE: Fluid in Middle Ear: 0 n (%) | TEAE: Flushing: 0 n (%) | TEAE: Food Allergy: 1 (<1%) n (%) | TEAE: General Disorders and Administration Site Conditions: 19 (7%) n (%) | TEAE: General Signs and Symptoms NEC: 3 (1%) n (%) | TEAE: Gilbert's Syndrome: 1 (<1%) n (%) | TEAE: Glucose Tolerance Impaired: 1 (<1%) n (%) | TEAE: Glycosuria: 1 (<1%) n (%) | TEAE: Goitre: 0 n (%) | TEAE: Gout: 0 n (%) | TEAE: Haematoma NOS: 0 n (%) | TEAE: Haematuria: 0 n (%) | TEAE: Hallucination NOS: 1 (<1%) n (%) | TEAE: Hallucination, Auditory: 1 (<1%) n (%) | TEAE: Hand Fracture: 1 (<1%) n (%) | TEAE: Hearing Losses: 0 n (%) | TEAE: Hepatitis NOS: 0 n (%) | TEAE: Hepatobiliary Disorders: 1 (<1%) n (%) | TEAE: Hepatobiliary Signs and Symptoms: 0 n (%) | TEAE: Hepatocellular Damage and Hepatitis NEC: 0 n (%) | TEAE: Hepatosplenomegaly NOS: 0 n (%) | TEAE: Hernia NOS: 1 (<1%) n (%) | TEAE: Hernia Repair NOS: 0 n (%) | TEAE: Hernia Repairs: 0 n (%) | TEAE: Hernias NEC: 1 (<1%) n (%) | TEAE: Hot Flushes NOS: 0 n (%) | TEAE: Hypercholesterolaemia: 3 (1%) n (%) | TEAE: Hyperglycaemia NOS: 3 (1%) n (%) | TEAE: Hyperglycaemic Conditions NEC: 4 (1%) n (%) | TEAE: Hyperkeratoses: 1 (<1%) n (%) | TEAE: Hyperkeratosis: 1 (<1%) n (%) | TEAE: Hyperlipidaemia NOS: 0 n (%) | TEAE: Hyperlipidaemias NEC: 0 n (%) | TEAE: Hypersensitivity NOS: 1 (<1%) n (%) | TEAE: Hypertension Aggravated: 1 (<1%) n (%) | TEAE: Hypertension NOS: 6 (2%) n (%) | TEAE: Hypotension NOS: 1 (<1%) n (%) | TEAE: Immune System Disorders: 4 (1%) n (%) | TEAE: Inborn Errors of Bilirubin Metabolism: 1 (<1%) n (%) | TEAE: Influenza Like Illness: 1 (<1%) n (%) | TEAE: Ingrowing Nail: 1 (<1%) n (%) | TEAE: Inner Ear Disorders NEC: 0 n (%) | TEAE: Inner Ear Infections and Inflammations: 1 (<1%) n (%) | TEAE: Inner Ear Signs and Symptoms: 2 (<1%) n (%) | TEAE: Insomnia: 0 n (%) | TEAE: Insomnia Exacerbated: 0 n (%) | TEAE: Intermenstrual Bleeding*: 0 n (%) | TEAE: Irritability: 1 (<1%) n (%) | TEAE: Ischaemic Coronary Artery Disorders: 0 n (%) | TEAE: Labyrinthitis NOS: 1 (<1%) n (%) | TEAE: Lacrimal Disorders: 0 n (%) | TEAE: Lactose Intolerance: 1 (<1%) n (%) | TEAE: Laryngeal and Adjacent Sites Disorders NEC (Excl Infections and Neoplasms): 1 (<1%) n (%) | TEAE: Laryngitis NOS: 1 (<1%) n (%) | TEAE: Leiomyoma NOS: 0 n (%) | TEAE: Lethargy: 1 (<1%) n (%) | TEAE: Leukopenia NOS: 0 n (%) | TEAE: Leukopenias NEC: 0 n (%) | TEAE: Libido Decreased: 1 (<1%) n (%) | TEAE: Lid, Lash and Lacrimal Structural Disorders (Excl Congenital): 0 n (%) | TEAE: Lipid Metabolism Disorder NOS: 0 n (%) | TEAE: Lipid Metabolism and Deposit Disorders NEC: 0 n (%) | TEAE: Lipoma NOS: 0 n (%) | TEAE: Lower Respiratory Tract Signs and Symptoms: 1 (<1%) n (%) | TEAE: Lymphadenopathy: 1 (<1%) n (%)
